Columns and labels:
[1] = Taste and spit assay phase II - assessment of fructose enhancing features; type: in vivo; conditions: 20 μM with fructose (4%) in 0.5% ethanol versus fructose (4%) only, 5 individuals, 10 ml
Experimental: The taste of a sample of compound of formula (Ia) with regard to sweetness and fructose enhancing features was assessed by using a panel of trained sensory evaluators experienced in the sweet taste estimation procedure. 5 individuals were asked to taste the quality of single samples of 10 ml volume. Panelists were asked to take a sample of the liquid to be assessed (20 μM test substance compound of formula (Ia) in 0.5% ethanol) into the mouth and after some time allowed for taste perception to spit the sample out completely. Subsequently, the panelists were asked to rinse their mouth well with water or black tea to reduce any potential carry over effects. The tasting of a sample could be repeated if required. In the next step the panelists were asked to answer questions in a pairwise comparison test to determine the enhancement of sweet taste of the test substance with fructose relative to fructose only. Again, 5 individuals were given samples of 10 ml volume. This time two samples were prepared for direct comparison regarding sweetness. One sample contained fructose (4%) in solvent (0.5% ethanol) and the other sample additionally contained 20 μM of the test substance compound of formula (Ia). Designation of the samples with A and B was randomized and decoded after the taste procedure. […]

[2] = Stability test at 30° C. at three pH-values (HPLC); type: physicochemical; conditions: for Stability: 30° C., 8 weeks, 0.2 mM, HPLC
Experimental: The stability of the compound of formula (Ia) was tested at 30° C. at three different pH-values.
The test ran over 8 weeks with the compound of formula (Ia) placed in temperature controlled ovens. Samples were taken according to the following scheme: Days 0, 3, 6, 10, 14, 21, and 28 followed by weeks 6 and 8. All samples were analyzed by HPLC. Reference samples for days 3, 6, 10, 14, 21, and 28 plus weeks 6 and 8 were kept at −20° C. and analyzed together with the samples at 30° C.
Each individual sample of the compound of formula (Ia) contained 18 μg in 200 μl buffer (0.2 mM). All samples were prepared in 1.5 ml HPLC vials at the same day. Samples for day 0 were immediately analyzed and all other samples placed in ovens. Reference samples were immediately frozen at −20° C.
One reference sample per pH-value was used. Samples from the oven were taken and reference samples were added after thawing. The set of samples at 30° with reference sample was grouped into the HPLC autosampler to minimize the time gap between HPLC-analysis within each set of samples. All samples were analyzed by double injections.
Samples were analyzed by the method shown below. The target peak was manually integrated and mean values of double injections were used to prepare graphs for assessment of the stability (see FIGS. 4 to 6).

Stability ([2]; pH=3.0 Na-Citrate buffer, FIG. 4): stable during 8 weeks at 30 °C at pH=3.0 | Stability ([2]; pH=4.5 Na-Citrate buffer, FIG. 5): stable during 8 weeks at 30 °C at pH=4.5 | Stability ([2]; pH=6.5 phosphate buffer, FIG. 6): stable during 8 weeks at 30 °C at pH=6.5 | Temperature and pH stability (overall) ([2]; summary of the test at 30° C., pH 3.0, 4.5, 6.5): excellent temperature and pH stability
Structure (SMILES): CC(=O)N(O)CCCCCNC(=O)C(O)(CC(=O)O)CC(=O)NCCCN(O)C(C)=O (centres unmarked) [compound of formula (Ia)]
Sweetness in pairwise comparison with fructose only [1]: All 5 panelists identified the sample containing 4% fructose with the compound of formula (Ia) as sweeter than the sample containing 4% fructose only
